Five molecules from patent publication US8552183B2, “Process for the covalent coupling of two molecules by means of a diels-alder reaction with inverse electron requirement” (Deutsches Krebsforschungszentrum Stiftung des Offentlichen …, priority 2006, dated 2013) can be followed below.

Common to all, as to type: physicochemical
A short description of assay [1]: DARinv kinetic measurement, tetrazines with dienophile 16. The settings on record: second order. How it is done:
(§1) Exploratory kinetic DARinv measurements for the produced dienes and dienophiles show the expected broad reaction behavior.
(§2) Legend: rate constants for the reaction for the reaction DARinv of dienes with dienophiles in liter mol^−1s^−1; n.d. means not yet measured. n.d(+) means: reaction is carried out, however, is too slow for the measurements, DAR adduct is characterized.
(§3) The conduction is very simple since the tetrazines have an absorption maximum of sufficient intensity at 520 nm whose reduction can be very well traced by means of photometry. The kinetic analysis supplies a rate law of second order.

Assay [2] can be described thus: DARinv kinetic measurement, tetrazines with dienophile 28 (photometry at 520 nm). The settings on record: second order. How it is done: as §1, §2, §3
A short description of assay [3]: DARinv kinetic measurement, tetrazines with dienophile 27. How it is done:
as §1, §2, §3

Assay [4] can be described thus: DARinv kinetic measurement, tetrazines with dienophile 14. The settings on record: second order. How it is done: as §1, §2, §3
Assay [5] in a line: DARinv kinetic measurement, tetrazines with dienophile 26. As to conditions: second order. How it is done:
as §1, §2, §3

A short description of assay [6]: DARinv kinetic measurement, tetrazines with dienophile 17. As to conditions: second order. How it is done: as §1, §2, §3
A short description of assay [7]: DARinv kinetic measurement, tetrazines with dienophile 13 (Reppe-ester). The settings on record: second order. How it is done:
as §1, §2, §3

Assay [8] in a line: DARinv of a methylene-group dienophile, reaction time. The settings on record: room temperature; reacts very slowly. How it is done:
A twofold substituted double bond as occurring in fatty acids or lipids, only reacts very slowly under normal conditions in the sense of DARinv. A methylene group, such as in the perilla alcohol, also reacts very slowly at room temperature (60 hours) in the sense of the DARinv thereby forming the expected adduct. However, as soon as a double bond is integrated within a carbocyclic ring system, it reacts much more rapidly than dienophile, the reactivity decreasing with increasing ring size, starting with the cyclopropene, and passing through a minimum with cyclohexene. In ring systems greater than seven rings, triple bonds can also react as inverse dienophiles.

[9] abbreviates: with dienophile 27, lower part of Table 2 (drawing 12).
[10] abbreviates: with dienophile 27, upper part of Table 2 (drawing 3).

Consider `COC(=O)c1nnc(C(=O)OC)nn1`, for which the “rate constant k of DARinv” value in assay [1] is 0.44 L/mol/s; in assay [2] it was 0.022 L/mol/s; in assay [3] (setting [9]), 0.0048 L/mol/s; in assay [3] (setting [10]), 0.0036 L/mol/s; in assay [4] it was 1.63 L/mol/s; in assay [5] it was 0.0028 L/mol/s. Also, the “rate constant k of DARinv” value came out at 0.13 L/mol/s in assay [6] and 3.4 L/mol/s in assay [7].
For `COC(=O)CNC(=O)c1nnc(C(=O)NCC(=O)OC)nn1`, the “rate constant k of DARinv” value in assay [1] came to 0.44 L/mol/s; in assay [2] it was 0.028 L/mol/s; in assay [3] (setting [9]) it was 0.0073 L/mol/s; in assay [3] (setting [10]) it was 0.0069 L/mol/s; in assay [4], 0.048 L/mol/s; in assay [5], 0.0056 L/mol/s. Further, the “rate constant k of DARinv” value in assay [6] was 0.18 L/mol/s; in assay [7] it was 0.028 L/mol/s.
For `O=C(NCCO)c1nnc(C(=O)NCCO)nn1`, the “rate constant k of DARinv” value in assay [1] worked out at 0.11 L/mol/s; in assay [2], 0.023 L/mol/s; in assay [3] (setting [9]), 0.008 L/mol/s; in assay [3] (setting [10]), 0.0067 L/mol/s; in assay [4], 0.69 L/mol/s; in assay [5], 0.0053 L/mol/s. Besides, the “rate constant k of DARinv” value in assay [6] amounted to 0.06 L/mol/s; in assay [7], 0.2 L/mol/s.
On to `COC(=O)CNC(=O)c1nnc(C(=O)N(C)C)nn1`, for which the results for the “rate constant k of DARinv” value in assay [2], in assay [5] and in assay [7] were <10^−4 liter mol^−1s^−1, <10^−4 liter mol^−1s^−1 and 0.014 L/mol/s, respectively.
As to `C=C(C)[C@@H]1CC=C(CO)CC1` [perilla alcohol], the “reaction time of DARinv forming the expected adduct” value in assay [8] was determined as 60 h.
